Patent publication US20070287699A1, “ANTIVIRAL AGENTS” (ViroBay, Inc., priority 2006, published 2007)

What follows are compounds tested on HCV replicon RNA replication in human Huh7 hepatoma cells (assay: HCV replicon assay (activity levels from either or both of HCV replicon assay 1, Huh7/Clone A RT-qPCR, and assay 2, Huh7 ET luc-ubi-neo/ET)). Conditions: Hepatitis C virus, Huh-7, either or both HCV replicon assays: Huh7/Clone A, 48 hours, 72 hours, Luc activity or RT-PCR, read-out: inhibit HCV replication at IC50 levels or estimated IC50 levels.
Format: cell-based, Hepatitis C virus (HCV)
In short: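 Huh7/Clone A subgenomic replicon cells treated 48 h at 37° C. with 7 serial dilutions in triplicate (0.5% DMSO final). Replicon RNA measured by TaqMan RT-qPCR on the neo gene, normalized to RiboGreen total RNA; untreated cells set as 100% for IC50.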

How did the IC50 turn out when CN1CCN(c2cc3c(cc2F)c(=O)c(-c2noc(Cc4ccc(F)cc4)n2)cn3C2(c3ccc(C(F)(F)F)cc3)CC2)CC1 [Compound 88b, 6-fluoro-3-[5-(4-fluoro-benzyl)-[1,2,4]oxadiazol-3-yl]-7-(4-methyl-piperazin-1-yl)-1-[1-(4-trifluoromethyl-phenyl)-cyclopropyl]-1H-quinolin-4-one] was run?
The IC50 was under 2 µM.

For CN1CCN(c2cc3c(cc2F)c(=O)c(-c2noc(C(CCCC(N)=O)c4ccccc4)n2)cn3Cc2ccc(C(F)(F)F)cc2F)CC1 (stereo not drawn) [Compound 89, 5-{3-[6-fluoro-1-(2-fluoro-4-trifluoromethyl-benzyl)-7-(4-methyl-piperazin-1-yl)-4-oxo-1,4-dihydro-quinolin-3-yl]-[1,2,4]oxadiazol-5-yl}-5-phenyl-pentanamide], which IC50 is on record?
Its IC50 is under 0.5 µM.

With CN1CCN(c2cc3c(cc2F)c(=O)c(-c2noc(C4(c5ccccc5)CC4)n2)cn3C2(c3ccc(C(F)(F)F)cc3)CC2)CC1 [Compound 90, 6-fluoro-7-(4-methyl-piperazin-1-yl)-3-[5-(1-phenyl-cyclopropyl)-[1,2,4]oxadiazol-3-yl]-1-[1-(4-trifluoromethyl-phenyl)-cyclopropyl]-1H-quinolin-4-one] as the compound, how does the IC50 read?
The IC50 was over 10 µM.

CN1CCN(c2cc3c(cc2F)c(=O)c(-c2noc(Cc4ccc(F)cc4)n2)cn3Cc2cccc(C(F)(F)F)c2)CC1 [Compound 91, 6-fluoro-3-[5-(4-fluoro-benzyl)-[1,2,4]oxadiazol-3-yl]-7-(4-methyl-piperazin-1-yl)-1-(3-trifluoromethyl-benzyl)-1H-quinolin-4-one] was tested. Which IC50 did it give?
The IC50 was under 2 µM.

For CN1CCN(c2cc3c(cc2F)c(=O)c(-c2noc(C(C)(C)c4ccccc4)n2)cn3Cc2ccc(Cl)nc2)CC1 [Compound 92, 1-(6-chloro-pyridin-3-ylmethyl)-6-fluoro-3-[5-(1-methyl-1-phenyl-ethyl)-[1,2,4]oxadiazol-3-yl]-7-(4-methyl-piperazin-1-yl)-1H-quinolin-4-one], which IC50 is on record?
Its IC50 is under 0.5 µM.

With O=c1c(-c2noc(Cc3ccccc3)n2)cn(Cc2ccc(C(F)(F)F)cc2F)c2ccccc12 [Compound 94, 3-(5-benzyl-[1,2,4]oxadiazol-3-yl)-1-(2-fluoro-4-trifluoromethyl-benzyl)-1H-quinolin-4-one] as the compound, how does the IC50 read?
Its IC50 is over 10 µM.

N#CCCCC(c1ccccc1)c1nc(-c2cn(Cc3ccc(C(F)(F)F)cc3F)c3ccccc3c2=O)no1 (stereo not drawn) [Compound 95, 5-{3-[1-(2-fluoro-4-trifluoromethyl-benzyl)-4-oxo-1,4-dihydro-quinolin-3-yl]-[1,2,4]oxadiazol-5-yl}-5-phenyl-pentanenitrile] was tested. Which IC50 did it give?
The IC50 was over 10 µM.

For CN1CCN(c2cc3c(cc2F)c(=O)c(-c2noc(C(C)(C)c4ccccc4)n2)cn3C2(c3ccc(C(F)(F)F)cc3)CC2)CC1 [Compound 96, 6-fluoro-3-[5-(1-methyl-1-phenyl-ethyl)-[1,2,4]oxadiazol-3-yl]-7-(4-methyl-piperazin-1-yl)-1-[1-(4-trifluoromethyl-phenyl)-cyclopropyl]-1H-quinolin-4-one], which IC50 is on record?
Its IC50 is under 0.5 µM.

CN(CC(N)=O)c1cc2c(cc1F)c(=O)c(-c1noc(Cc3ccccc3)n1)cn2Cc1ccc(C(F)(F)F)cc1 [Compound 97, 2-{[3-(5-benzyl-[1,2,4]oxadiazol-3-yl)-6-fluoro-4-oxo-1-(4-trifluoromethyl-benzyl)-1,4-dihydro-quinolin-7-yl]-methyl-amino}-acetamide] was tested. Which IC50 did it give?
The IC50 was over 10 µM.

For CN1CCN(c2cc3c(cc2F)c(=O)c(-c2noc(C(C)(C)c4ccccc4)n2)cn3Cc2cccc(C(F)(F)F)c2)CC1 [Compound 98, 6-fluoro-3-[5-(1-methyl-1-phenyl-ethyl)-[1,2,4]oxadiazol-3-yl]-7-(4-methyl-piperazin-1-yl)-1-(3-trifluoromethyl-benzyl)-1H-quinolin-4-one], which IC50 is on record?
The IC50 was under 0.5 µM.

NC(=O)CCCC(c1ccccc1)c1nc(-c2cn(Cc3ccc(C(F)(F)F)cc3F)c3ccccc3c2=O)no1 (stereo not drawn) [Compound 99, 5-{3-[1-(2-fluoro-4-trifluoromethyl-benzyl)-4-oxo-1,4-dihydro-quinolin-3-yl]-[1,2,4]oxadiazol-5-yl}-5-phenyl-pentanoic acid amide] was tested. Which IC50 did it give?
The IC50 was over 10 µM.

Which IC50 does the source give for CC(C)(c1ccccc1)c1nc(-c2cn(Cc3ccc(C(F)(F)F)cc3)c3cc(N4CCS(=O)(=O)CC4)c(F)cc3c2=O)no1 [Compound 100, 7-(1,1-dioxo-thiomorpholin-4-yl)-6-fluoro-3-[5-(1-methyl-1-phenyl-ethyl)-[1,2,4]oxadiazol-3-yl]-1-(4-trifluoromethyl-benzyl)-1H-quinolin-4-one] here?
The IC50 was under 0.5 µM.

CC(C)(c1ccccc1)c1nc(-c2cn(Cc3ccc(C(F)(F)F)cc3)c3cc(N4CCSCC4)c(F)cc3c2=O)no1 [Compound 101, 6-fluoro-3-[5-(1-methyl-1-phenyl-ethyl)-[1,2,4]oxadiazol-3-yl]-7-thiomorpholin-4-yl-1-(4-trifluoromethyl-benzyl)-1H-quinolin-4-one] was tested. Which IC50 did it give?
Its IC50 is under 0.5 µM.

CC(C)(C)c1ccc(Cn2cc(-c3noc(Cc4ccccc4)n3)c(=O)c3cc(F)c(N4CCCNCC4)cc32)cc1 [Compound 102, 3-(5-benzyl-[1,2,4]oxadiazol-3-yl)-1-(4-tert-butyl-benzyl)-7-[1,4]diazepan-1-yl-6-fluoro-1H-quinolin-4-one] was tested. Which IC50 did it give?
Its IC50 is under 2 µM.

With CN1CCCN(c2nc3c(cc2F)c(=O)c(-c2noc(C(C)(C)c4ccccc4)n2)cn3Cc2ccc(C(F)(F)F)cc2)CC1 [Compound 103, 6-fluoro-7-(4-methyl-[1,4]diazepan-1-yl)-3-[5-(1-methyl-1-phenyl-ethyl)-[1,2,4]oxadiazol-3-yl]-1-(4-trifluoromethyl-benzyl)-1H-[1,8]naphthyridin-4-one] as the compound, how does the IC50 read?
The IC50 was under 2 µM.

How did the IC50 turn out when O=C(O)c1cn(-c2cc3c(cc2F)c(=O)c(-c2noc(Cc4ccccc4)n2)cn3Cc2ccc(C(F)(F)F)cc2F)cn1 [Compound 104, 1-(3-(5-benzyl-1,2,4-oxadiazol-3-yl)-6-fluoro-1-(2-fluoro-4-(trifluoromethyl)benzyl)-4-oxo-1,4-dihydroquinolin-7-yl)-1H-imidazole-4-carboxylic acid] was run?
The IC50 was over 10 µM.

How did the IC50 turn out when NC(=O)Cc1ccc2c(c1)c(=O)c(-c1noc(Cc3ccccc3)n1)cn2Cc1ccc(C(F)(F)F)cc1F [Compound 105, 2-(3-(5-benzyl-1,2,4-oxadiazol-3-yl)-1-(2-fluoro-4-(trifluoromethyl)benzyl)-4-oxo-1,4-dihydroquinolin-6-yl)acetamide] was run?
The IC50 was over 10 µM.

With CC(c1ccc(C(F)(F)F)cc1)n1cc(-c2noc(C(C)(C)c3ccc(F)cc3)n2)c(=O)c2cc(F)c(N3CCOCC3)cc21 (stereo not drawn) [Compound 109, 6-fluoro-3-(5-(2-(4-fluorophenyl)propan-2-yl)-1,2,4-oxadiazol-3-yl)-7-morpholino-1-(1-(4-(trifluoromethyl)phenyl)ethyl)quinolin-4(1H)-one] as the compound, how does the IC50 read?
The IC50 was under 2 µM.

CC(C)(c1ccc(F)cc1)c1nc(-c2cn(Cc3ccc(C(F)(F)F)cc3)c3cc(N4CCNC(=O)C4)c(F)cc3c2=O)no1 [Compound 125, 6-fluoro-3-(5-(2-(4-fluorophenyl)propan-2-yl)-1,2,4-oxadiazol-3-yl)-7-(3-oxopiperazin-1-yl)-1-(4-(trifluoromethyl)benzyl)quinolin-4(1H)-one] was tested. Which IC50 did it give?
Its IC50 is under 0.5 µM.

For CC(C)(c1ccccc1)c1nc(-c2cn(Cc3ccc(C(F)(F)F)cc3)c3cc(N4CCNC(=O)C4)c(F)cc3c2=O)no1 [Compound 126, 6-fluoro-7-(3-oxopiperazin-1-yl)-3-(5-(2-phenylpropan-2-yl)-1,2,4-oxadiazol-3-yl)-1-(4-(trifluoromethyl)benzyl)quinolin-4(1H)-one], which IC50 is on record?
The IC50 was under 0.5 µM.

How did the IC50 turn out when CC(C)(c1ccc(Cl)cc1)c1nc(-c2cn(Cc3ccc(C(F)(F)F)cc3)c3cc(N4CCS(=O)(=O)CC4)c(F)cc3c2=O)no1 [Compound 127, 3-(5-(2-(4-chlorophenyl)propan-2-yl)-1,2,4-oxadiazol-3-yl)-6-fluoro-7-dioxo-thiomorpholino-1-(4-(trifluoromethyl)benzyl)quinolin-4(1H)-one] was run?
Its IC50 is under 10 µM.

For CC(C)(c1ccccc1)c1nc(-c2cn(Cc3ccc(C(F)(F)F)cc3)c3cc(N4CC[S+]([O-])CC4)c(F)cc3c2=O)no1 [Compound 129], which IC50 is on record?
The IC50 was under 0.5 µM.

For COc1ccc(Cn2cc(-c3noc(C(C)(C)c4ccc(F)cc4)n3)c(=O)c3cc(F)c(N4CCOCC4)cc32)cc1 [Compound 130, 6-fluoro-3-(5-(2-(4-fluorophenyl)propan-2-yl)-1,2,4-oxadiazol-3-yl)-1-(4-methoxybenzyl)-7-morpholinoquinolin-4(1H)-one], which IC50 is on record?
The IC50 was under 2 µM.

How did the IC50 turn out when C[C@@H]1CN(c2cc3c(cc2F)c(=O)c(-c2noc(C(C)(C)c4ccccc4)n2)cn3Cc2ccc(C(F)(F)F)cc2)C[C@H](C)N1 [Compound 131, 7-((3S,5R)-3,5-dimethylpiperazin-1-yl)-6-fluoro-3-(5-(2-phenylpropan-2-yl)-1,2,4-oxadiazol-3-yl)-1-(4-(trifluoromethyl)benzyl)quinolin-4(1H)-one] was run?
Its IC50 is under 0.5 µM.

How did the IC50 turn out when CC(C)(c1ccc(F)cc1)c1nc(-c2cn(Cc3ccc(C(F)(F)F)cc3)c3cc(N4CCSCC4)c(F)cc3c2=O)no1 [Compound 132, 6-fluoro-3-(5-(2-(4-fluorophenyl)propan-2-yl)-1,2,4-oxadiazol-3-yl)-7-thiomorpholino-1-(4-(trifluoromethyl)benzyl)quinolin-4(1H)-one] was run?
Its IC50 is under 0.5 µM.

Which IC50 does the source give for C[C@@H]1CN(c2cc3c(cc2F)c(=O)c(-c2noc(C(C)(C)c4ccc(F)cc4)n2)cn3Cc2ccc(C(F)(F)F)cc2)C[C@H](C)N1 [Compound 133, 7-((3S,5R)-3,5-dimethylpiperazin-1-yl)-6-fluoro-3-(5-(2-(4-fluorophenyl)propan-2-yl)-1,2,4-oxadiazol-3-yl)-1-(4-(trifluoromethyl)benzyl)quinolin-4(1H)-one] here?
Its IC50 is under 0.5 µM.

For CC1CN(c2cc3c(cc2F)c(=O)c(-c2noc(C(C)(C)c4ccccc4)n2)cn3Cc2ccc(C(F)(F)F)cc2)CC(C)O1 (stereo not drawn) [Compound 138, 7-(2,6-dimethylmorpholino)-6-fluoro-3-(5-(2-phenylpropan-2-yl)-1,2,4-oxadiazol-3-yl)-1-(4-(trifluoromethyl)benzyl)quinolin-4(1H)-one], which IC50 is on record?
The IC50 was under 2 µM.
